Data as given in ChEMBL document CHEMBL3885861, “Open TG-GATES”.

Species on record: Rattus norvegicus
Assay: Open TG-GATES - Regimen: Single
Assay type: toxicity, organism-based, Sprague-Dawley
Set-up: regimen Single, gender Male, age 6 weeks
Conditions: in vivo, po, 30 mg/kg, route gavage, dose level Low; for APTT / Bas / Eos / Fbg / Hb / Ht / Lym / MCH / MCHC / MCV / Mono / Neu / PT / Plat / RBC / Ret / WBC: tissue Blood; for ALP / ALT / AST / BUN / CRE / DBIL / GLC / IP / K / Na / PL / RALB / TBIL / TC / TG / TP / gamma-GTP: tissue Plasma

NS(=O)(=O)c1cc(C(=O)O)c(NCc2ccco2)cc1Cl [FUROSEMIDE] gave a TERMINAL_BW (3 h) of 201.3 g, an APTT (3 h) of 18.1 s and a Bas (3 h) of 0%. For the same compound, the Eos (3 h) was 1%, the Fbg (3 h) was 278.8 mg/dL and the Hb (3 h) was 14 g/dL. The Ht (3 h) was 41.6%, the Lym (3 h) was 74.2% and the MCH (3 h) was 21.2 pg. It also gave an MCHC (3 h) of 33.6%, an MCV (3 h) of 63.2 fL and a Mono (3 h) of 4.4%. It also gave a Neu (3 h) of 19.6%, a PT (3 h) of 15.4 s and a Plat (3 h) of 117.4 x10_4/uL. The RBC (3 h) was 658.6 x10_4/ul, the Ret (3 h) was 7.9% and the WBC (3 h) was 68.2 x10_2/uL. For the same compound, the ALP (3 h) was 1468.8 IU/L, the ALT (3 h) was 46 IU/L and the AST (3 h) was 77 IU/L. The BUN (3 h) was 15.4 mg/dL, the CRE (3 h) was 0.2 mg/dL and the DBIL (3 h) was 0.01 mg/dL. It also gave a GLC (3 h) of 179.2 mg/dL, an IP (3 h) of 10.5 mg/dL and a K (3 h) of 3.7 meq/L. For the same compound, the Na (3 h) was 141.6 meq/L, the PL (3 h) was 149.8 mg/dL and the RALB (3 h) was 2.8 g/dL. The TBIL (3 h) was 0.058 mg/dL, the TC (3 h) was 79.4 mg/dL and the TG (3 h) was 63.6 mg/dL. The TP (3 h) was 5.9 g/dL, the gamma-GTP (3 h) was 1 IU/L and the TERMINAL_BW (6 h) was 199.3 g. The APTT (6 h) was 17.5 s, the Bas (6 h) was 0% and the Eos (6 h) was 1%. For the same compound, the Fbg (6 h) was 324.6 mg/dL, the Hb (6 h) was 14.1 g/dL and the Ht (6 h) was 41.9%. The Lym (6 h) was 74.4%, the MCH (6 h) was 21.6 pg and the MCHC (6 h) was 33.7%. It also gave an MCV (6 h) of 64 fL, a Mono (6 h) of 3.8% and a Neu (6 h) of 20%. It also gave a PT (6 h) of 15.2 s, a Plat (6 h) of 124.8 x10_4/uL and an RBC (6 h) of 655.4 x10_4/ul. For the same compound, the Ret (6 h) was 7.9%, the WBC (6 h) was 92.3 x10_2/uL and the ALP (6 h) was 1320.8 IU/L. For the same compound, the ALT (6 h) was 45.6 IU/L, the AST (6 h) was 74.6 IU/L and the BUN (6 h) was 17.8 mg/dL. For the same compound, the CRE (6 h) was 0.2 mg/dL, the DBIL (6 h) was 0.016 mg/dL and the GLC (6 h) was 181.2 mg/dL. It also gave an IP (6 h) of 10.4 mg/dL, a K (6 h) of 3.6 meq/L and a Na (6 h) of 141 meq/L. For the same compound, the PL (6 h) was 156.2 mg/dL, the RALB (6 h) was 2.9 g/dL and the TBIL (6 h) was 0.074 mg/dL. For the same compound, the TC (6 h) was 88.2 mg/dL, the TG (6 h) was 44.2 mg/dL and the TP (6 h) was 6.1 g/dL. For the same compound, the gamma-GTP (6 h) was 1 IU/L, the TERMINAL_BW (9 h) was 199.5 g and the APTT (9 h) was 17.3 s. The Bas (9 h) was 0%, the Eos (9 h) was 1% and the Fbg (9 h) was 310.2 mg/dL. The Hb (9 h) was 14 g/dL, the Ht (9 h) was 41.4% and the Lym (9 h) was 73%. The MCH (9 h) was 21.5 pg, the MCHC (9 h) was 33.8% and the MCV (9 h) was 63.8 fL. The Mono (9 h) was 3.2%, the Neu (9 h) was 22% and the PT (9 h) was 15.4 s. The Plat (9 h) was 118.1 x10_4/uL, the RBC (9 h) was 649.2 x10_4/ul and the Ret (9 h) was 8.1%. The WBC (9 h) was 89.5 x10_2/uL, the ALP (9 h) was 1152.2 IU/L and the ALT (9 h) was 38.6 IU/L. The AST (9 h) was 68.6 IU/L, the BUN (9 h) was 16.4 mg/dL and the CRE (9 h) was 0.2 mg/dL. The DBIL (9 h) was 0.01 mg/dL, the GLC (9 h) was 181.4 mg/dL and the IP (9 h) was 10.7 mg/dL. It also gave a K (9 h) of 3.7 meq/L, a Na (9 h) of 143 meq/L and a PL (9 h) of 147.4 mg/dL. For the same compound, the RALB (9 h) was 2.7 g/dL, the TBIL (9 h) was 0.072 mg/dL and the TC (9 h) was 81 mg/dL. For the same compound, the TG (9 h) was 38 mg/dL, the TP (9 h) was 5.8 g/dL and the gamma-GTP (9 h) was 0.8 IU/L. For the same compound, the TERMINAL_BW (24 h) was 224.4 g, the APTT (24 h) was 17.3 s and the Bas (24 h) was 0.2%. For the same compound, the Eos (24 h) was 1%, the Fbg (24 h) was 267 mg/dL and the Hb (24 h) was 13.3 g/dL. It also gave a Ht (24 h) of 39.7%, a Lym (24 h) of 78.6% and an MCH (24 h) of 21.8 pg. It also gave an MCHC (24 h) of 33.5%, an MCV (24 h) of 65.1 fL and a Mono (24 h) of 2.8%. For the same compound, the Neu (24 h) was 16.4%, the PT (24 h) was 15.8 s and the Plat (24 h) was 118.7 x10_4/uL. It also gave an RBC (24 h) of 610 x10_4/ul, a Ret (24 h) of 7.4% and a WBC (24 h) of 96 x10_2/uL. The ALP (24 h) was 1538.8 IU/L, the ALT (24 h) was 44.6 IU/L and the AST (24 h) was 73.6 IU/L. It also gave a BUN (24 h) of 16 mg/dL, a CRE (24 h) of 0.2 mg/dL and a DBIL (24 h) of 0.01 mg/dL. The GLC (24 h) was 183.4 mg/dL, the IP (24 h) was 7.7 mg/dL and the K (24 h) was 4 meq/L. The Na (24 h) was 142.6 meq/L, the PL (24 h) was 147.8 mg/dL and the RALB (24 h) was 2.6 g/dL. The TBIL (24 h) was 0.052 mg/dL, the TC (24 h) was 81.8 mg/dL and the TG (24 h) was 60.8 mg/dL. The TP (24 h) was 5.6 g/dL and the gamma-GTP (24 h) was 0.8 IU/L.
